Publication PMC9738062, “Selectively Halogenated Flavonolignans—Preparation and Antibacterial Activity” (International Journal of Molecular Sciences, 2022)

What was measured:
[1] = tested on: human dermal fibroblasts (HDF); test: Cytotoxicity (resazurin assay, 72 h); assay type: cell-based; conditions: Fibroblast
Method: (§1) The cytotoxicity of flavonoids and their halogenated derivatives was determined as their ability to decrease the viability of human dermal fibroblasts (HDF) and doxorubicin-resistant human ovarian carcinomas (HOC/DOX). Both cell lines were cultivated in Dulbecco’s Modified Eagle’s Medium supplemented with fetal bovine serum (FBS, 10% v/v) and 1 × antibiotic antimycotic solution and incubated at 37 °C in the atmosphere of 5% CO2. The experiment was performed according to a previously published method. Briefly, 1 × 10^5 cells/mL were seeded into a 96-well plate (100 µL/well). After 24 h, flavonoids and their derivatives were administered at the concentration range of 31.25–500 µM. After 72 h, the viability was determined by resazurin assay (0.03 mg/mL of resazurin in PBS), where the fluorescence was measured after 2 h of incubation by the SpectraMax i3x microplate reader at a wavelength of 560/590 nm (excitation/emission). The concentration inhibiting half of the population (IC50) was determined using nonlinear regression in GraphPad Prism software. The selectivity index was calculated as the ratio between the IC50 for HDF (control, non-cancerous cells) and the IC50 for HOC/DOX (cancer cells).

[2] = tested on: doxorubicin-resistant human ovarian carcinoma (HOC/DOX); test: Cytotoxicity (resazurin assay, 72 h); assay type: cell-based; conditions: for IC50: Homo sapiens, 72 h, resazurin assay; for SI (selectivity index): ratio IC50 for HDF / IC50 for HOC/DOX
Method: as §1

[3] = tested on: Vibrio campbellii BAA 1119 (AI-2); test: microbe, parasite or virus in culture; assay type: cell-based; conditions: for EC50: Vibrio campbellii, BAA1119, 16 h, read-out: EC50 (concentration that halved the communication); for SI (selectivity index): ratio IC50 (viability) / EC50 (communication), BAA 1119
Source text: (§2) Commercially available strains of Vibrio campbellii were used to evaluate the ability of flavonoids and their derivatives to inhibit bacterial quorum sensing. V. campbellii uses two types of autoinducing molecules for its communication—N-acyl-homoserine lactones (Autoinducer I, AI-1, strain BAA 1118) and furanosyl borate diester (Autoinducer II, AI-2, strain BAA 1119). AI-1-based communication is mainly used by Gram-negative bacteria, while AI-2-based communication is found in both Gram-negative and Gram-positive bacteria. The mutant strains of V. campbellii BA1118 and BA1119 respond only to AI-1 or AI-2, respectively, and the response to the respective AI concentration is measured as luminescence. The higher the AI concentration, the higher the luminescence signal. The ability to inhibit the communication was expressed as the selectivity index (SI), calculated as the ratio between the concentration that halved the viability (IC50) and the concentration that halved the communication (EC50) of the respective V. campbellii strains. […] The antimicrobial activity of quorum-sensing inhibitors is undesirable because it creates a selection pressure and can lead to the development of resistance.
(§3) The inhibition of bacterial extracellular communication was measured using Vibrio campbellii strains BAA-1118 and BAA-1119. The experiment was performed according to the methods of Szemerédi et al.. Briefly, 5 × 10^5 CFU/mL (colony-forming units per milliliter) were seeded in an Autoinducer Bioassay medium (NaCl 17.5 g/L, MgSO4 12.3 g/L, Casamino acids 2 g/L, 10 mL of 1 M potassium phosphate pH 7.0, 10 mL of 0.1 M L-arginine, and 10 mL of glycerol in 970 mL of deionized water) in a 96-well plate. Immediately, the tested compounds were added at the final concentration of 0.2–200 µM and luminescence was recorded for 16 h by a SpectraMax i3x microplate reader set at 30 °C, an integration time of 10,000 ms, and shaking for 60 s before measurement. […] The selectivity index was calculated as the […]. The EC50 and IC50 were calculated using GraphPad Prism software version 5.00 for Windows with a nonlinear regression curve fit.

[4] = tested on: Vibrio campbellii BAA 1118 (AI-1); test: Viability of the quorum-sensing reporter culture (resazurin assay), AI-1 strain; assay type: cell-based; conditions: BAA1118, V. campbellii BAA 1118, resazurin assay, read-out: IC50 (concentration that halved the viability)
Source text: as §2, §3

[5] = tested on: multidrug-resistant P. aeruginosa; test: Sensitization of antibiotic-resistant bacteria (compound plus breakpoint antibiotic concentration); assay type: cell-based, Pseudomonas aeruginosa; conditions: flavonoid 40 µM, 24 h; for Effect on viability in combination with colistin: colistin 2 mg/L; for Effect on viability in combination with imipenem: imipenem 4 mg/L; as to Effect on viability in combination with imipenem: key: -: no effect (100% viability) was observed up to the highest flavonolignan concentration tested (>40 µM); reversion of resistance: the compound reversed the resistant phenotype to a sensitive one
Method: (§4) Clinically relevant antibiotics were selected for sensitization testing according to the European Committee on Antimicrobial Susceptibility Testing (EUCAST). Neither colistin and imipenem at breakpoint concentrations (according to EUCAST, […] and […]) affected the growth of the multidrug-resistant clinical strain of P. aeruginosa. Similarly, neither chloramphenicol and gentamicin at breakpoint concentrations ([…], respectively) affected the multidrug-resistant clinical strain of S. aureus. Flavonoids and their derivatives (1–40 µM) were used in combination therapy, along with the breakpoint concentration of antibiotics. After co-incubation, the minimum inhibitory concentration of flavonoids inhibiting the visible growth of bacteria was determined (Table 2).
(§5) Clinical isolates of P. aeruginosa and S. aureus were obtained from the General University Hospital in Prague (Prague, Czech Republic). P. aeruginosa was resistant to ciprofloxacin, oxacillin, ticarcillin, colistin, gentamicin, and imipenem. S. aureus was resistant to ciprofloxacin, gentamicin, erythromycin, chloramphenicol, clindamycin, oxacillin, cefotaxime, and vancomycin. Bacteria were cultivated in Mueller–Hinton broth (MH broth, Merck). The susceptibility of the bacteria was evaluated by the minimum inhibitory concentrations (MIC). The MIC of derivatives in the presence of the antibiotic cut-off concentration was determined according to ISO 20776-1: 2020. The antibiotic cut-off concentration was chosen according to the European Committee on Antimicrobial Susceptibility Testing (EUCAST, Clinical breakpoints—bacteria (ver. 11.0), 1 January 2021). The 40 µM concentration of the derivatives was chosen as the highest concentration for the tests. Cell viability was determined by measuring absorbance (A590 nm) after 24 h incubation at 37 °C, 150 rpm.

DPPH radical scavenging = conditions: 1,1-diphenyl-2-picrylhydrazyl radical scavenging
Method: (§6) To further elucidate how halogenation affects other properties of the flavonoids studied, their 2,2′-azino-bis-(3-ethylbenzothiazoline-6-sulfonic acid) cation (ABTS) and 1,1-diphenyl-2-picrylhydrazyl (DPPH) radical scavenging, the Folin–Ciocalteu reagent (FCR) reducing, the ferric-reducing antioxidant power (FRAP), and the anti-lipoperoxidation activities were evaluated by in vitro methods (Supplementary Information Tables S1 and S2).
(§7) The antiradical activity was evaluated by the ability to scavenge ABTS and DPPH radicals. Reducing capacity was assessed by the ability to reduce the Folin–Ciocalteu reagent (FCR) and ferric ions (FRAP). The ability to inhibit lipid peroxidation of pooled male rat microsomal liver membranes induced by tert-butyl hydroperoxide was also evaluated and the results were expressed as IC50 values.

[6] = tested on: multidrug-resistant S. aureus; test: Sensitization of antibiotic-resistant bacteria (compound plus breakpoint antibiotic concentration); assay type: cell-based, Staphylococcus aureus; conditions: for Effect on viability in combination with chloramphenicol: chloramphenicol 8 mg/L; for Effect on viability in combination with chloramphenicol / Effect on viability in combination with gentamicin: 24 h; for Effect on viability in combination with gentamicin: gentamicin 1 mg/L
Method: as §4, §5

[7] = ABTS cation radical scavenging; conditions: vitamin C equivalent antioxidant capacity
Method: as §6, §7

[8] = tested on: pooled male rat microsomal liver membranes; test: Inhibition of lipid peroxidation induced by tert-butyl hydroperoxide; assay type: biochemical; conditions: male rat microsomes, read-out: ILP IC50
Method: as §7

| Structure (SMILES) | IC50 [1] [µM] | IC50 [2] [µM] | SI (selectivity index) [2] | EC50 [3] [µM] | SI (selectivity index) [3] | IC50 [4] [µM] | Effect on viability in combination with colistin [5] | Effect on viability in combination with imipenem [5] | IC50 (DPPH radical scavenging) [µM] | Effect on viability in combination with chloramphenicol ([6]; flavonoid 40 µM) | Effect on viability in combination with gentamicin ([6]; flavonoid 40 µM) | ABTS [CEAC] [7] [CEAC] | IC50 [8] [µM] | Effect on viability in combination with gentamicin ([6]; flavonoid 5 µM) | Gentamicin-resistant phenotype of S. aureus (result in words) ([6]; gentamicin breakpoint concentration, compound 5 µM) | Growth in combination with chloramphenicol ([6]; chloramphenicol breakpoint concentration, compound 40 µM as stated in the text) [%] |
| --- | --- | --- | --- | --- | --- | --- | --- | --- | --- | --- | --- | --- | --- | --- | --- | --- |
| COc1cc([C@H]2Oc3cc([C@H]4Oc5cc(O)cc(O)c5C(=O)[C@@H]4O)ccc3O[C@@H]2CO)ccc1O [3a, silybin A, reference compound] | 109 | 236 | 0.46 | 17.1 ± 0.5 | 7.0 ± 0.4 | 131 ± 3.7 | - | - | 322 | - | - | 0.50 ± 0.03 | 213 |  |  |  |
| COc1cc([C@@H]2Oc3cc([C@H]4Oc5cc(O)cc(O)c5C(=O)[C@@H]4O)ccc3O[C@H]2CO)ccc1O [3b, silybin B, reference compound] | 83.3 ± 5.4 | 202 | 0.41 | 22.3 ± 0.5 | 6.8 ± 0.2 | 116.6 ± 0.9 | - | - | 259 | - | - | 0.55 ± 0.05 | 291 |  |  |  |
| O=C1c2c(O)cc(O)cc2OC(c2ccc(O)c(O)c2)C1O (centres unmarked) [compound 1, taxifolin, reference compound] | 93.8 ± 3.7 | 183 | 0.51 | 7.3 ± 0.3 | 11.0 ± 0.6 | 71 ± 3 | - | - | 2.91 | - |  | 1.08 ± 0.02 | 16.3 ± 1.1 |  |  |  |
| O=c1c(O)c(-c2ccc(O)c(O)c2)oc2cc(O)cc(O)c12 [compound 2, quercetin, reference compound] | 54.8 ± 2.7 | 182 | 0.30 | 4.8 ± 0.2 | 2.2 ± 0.2 | 24.5 ± 0.8 | - | - | 2.06 | - | - | 2.87 ± 0.23 | 39 ± 2.9 |  |  |  |
| COc1cc(C2Oc3cc(-c4oc5cc(O)cc(O)c5c(=O)c4O)ccc3OC2CO)ccc1O (centres unmarked) [compound 4, 2,3-dehydrosilybin AB, reference compound] |  | 23.5 ± 1.5 | 0.71 | 10.2 ± 0.4 | 2.5 ± 0.2 | 163 ± 3.8 | - | - | 14.4 | - |  | 1.46 ± 0.08 | 34.6 ± 2.3 | reversion of resistance [5 µM] | reversed |  |
| COc1cc([C@@H]2Oc3c(O)cc([C@H]4Oc5cc(O)cc(O)c5C(=O)[C@@H]4O)cc3[C@H]2CO)ccc1O [compound 5, silychristin A, reference compound] | 115 | 205 | 0.56 | > 200 |  | > 200 | - | - | 47.2 | - | - | 1.73 ± 0.02 | 129 |  |  |  |
| COc1cc([C@@H]2Oc3c(O)cc(-c4oc5cc(O)cc(O)c5c(=O)c4O)cc3[C@H]2CO)ccc1O [compound 6, 2,3-dehydrosilychristin A, reference compound] | 44.2 ± 2.1 | 75.7 ± 8.6 | 0.58 | 11.1 ± 0.1 | 0.99 ± 0.05 | 43 ± 1.5 | - | - | 10.8 ± 0.4 |  | - | 2.10 | 51.9 ± 2.2 |  |  | 69 |
| O=C1c2c(cc(O)c(Br)c2O)O[C@H](c2ccc(O)c(O)c2)[C@H]1O [compound 7, 6-Bromotaxifolin] | 122 | 347 | 0.35 | 11.9 ± 0.5 | 1.7 ± 0.2 | 59 ± 0.1 | - | - | 7.77 | - |  | 0.97 ± 0.03 | 201 |  |  |  |
| O=C1c2c(O)c(Br)c(O)c(Br)c2O[C@H](c2ccc(O)c(O)c2)[C@H]1O [compound 8, 6,8-dibromotaxifolin] | 158 | 233 | 0.68 | 10.1 ± 0.4 | 10.8 ± 0.6 | 55.5 ± 1 | - | - | 4.37 | - |  | 1.04 ± 0.05 | 22.5 ± 1 |  |  |  |
